Counter-ions that a name gives are not always drawn.
Test system: HTT
Experiment: Mini-gene reporter assay-HTT (firefly luciferase, exon inclusion)
Assay type: cell-based
Conditions: HTT Minigene, 5 μM; read-out: % Efficacy at 5 μM
Text: Mini-gene reporter constructs for each target site were constructed by first PCR amplifying the region-of-interest including the sequence of the alternatively skipped, sequences of the immediate upstream and downstream introns, and sequences of the immediate upstream and downstream exons. Then the 3′end of the amplified sequence was ligated to a firefly luciferase reporter gene and cloned into the pcDNA3.1 vector backbone. The final reporter construct was transiently transfected into HEK293 cells using Lipofectamine 3000 transfection reagents. Compounds that can induce the inclusion of the skipped exon in the reporter construct would increase the reporter firefly luciferase activity.
Test compounds were diluted in duplicates and dispensed into an assay plate. Transient mini-gene reporter cell line stock was resuspended and dispensed into the assay plate. Assay plates were then centrifuged and incubated. A luciferase reagent (e.g. ONE-Glo firefly luciferase reagent from Promega®) was added to the assay plate and the luminescence (RLU) signals recorded. EC50 values were determined by curve fitting in Levenberg-Marquardt algorithm.

First: CCCn1cc(CN2CC(c3ccc(-c4ccc(-c5cc(F)c6nc(C)cn6c5)cc4O)nn3)C2)cn1 [Compound 91]
Second: Cc1cn2cc(-c3ccc(-c4ccc(C5CN(Cc6cnn(C)c6)C5)nn4)c(O)c3)cc(F)c2n1 [Compound 71]
The Emax at 5 µM of the first is lower: 25 to 75% for the first, greater than 750% for the second.

First: Cc1cn2cc(-c3ccc(-c4ccc(C5CN(Cc6conc6C)C5)nn4)c(O)c3)cc(F)c2n1 [Compound 114]
Second: Cc1cn2cc(-c3ccc(-c4ccc(C5CN(Cc6c(C)n[nH]c6C)C5)nn4)c(O)c3)cc(F)c2n1 [Compound 74]
The Emax at 5 µM of the first is lower: less than 25% for the first, 25 to 75% for the second.

COc1cc(-c2ccc(-c3ccc(C4CN(C5CCCC5)C4)nn3)c(O)c2)cc2cn(C)nc12 [Compound 137] and COc1cc(-c2ccc(-c3ccc(C4CN(C5CCCOCC5)C4)nn3)c(O)c2)cc2cn(C)nc12 (stereo not drawn) [Compound 155] cannot be ordered by Emax at 5 µM: greater than 750% for the first, greater than 750% for the second.

First: Cc1cn2cc(-c3ccc(-c4ccc(C5CN(C(C)Cc6cnn(C)c6)C5)nn4)c(O)c3)cc(F)c2n1 (stereo not drawn) [Compound 106]
Second: Cc1cn2cc(-c3ccc(-c4ccc(C5CN(Cc6cnn(C)n6)C5)nn4)c(O)c3)cc(F)c2n1 [Compound 117]
The Emax at 5 µM of the first is higher: greater than 750% for the first, 25 to 75% for the second.

COc1cc(-c2ccc(-c3ccc(C4CN(Cc5cccnc5C)C4)nn3)c(O)c2)cc2cn(C)nc12 [Compound 150] and COc1cc(-c2ccc(-c3ccc(C4CN(Cc5nc(C)ccc5O)C4)nn3)c(O)c2)cc2cn(C)nc12 [Compound 149] fall in the same range of Emax at 5 µM: 25 to 75% for the first, 25 to 75% for the second.

COc1cc(-c2ccc(-c3ccc(C4CN(C(C)CC5CCOC5)C4)nn3)c(O)c2)cc2cn(C)nc12 (stereo not drawn) [Compound 158] and COCC(C)N1CC(c2ccc(-c3ccc(-c4cc(OC)c5nn(C)cc5c4)cc3O)nn2)C1 (stereo not drawn) [Compound 143] cannot be ordered by Emax at 5 µM: greater than 750% for the first, greater than 750% for the second.

COc1cc(-c2ccc(-c3ccc(C4CN(C5CC(OC)C5)C4)nn3)c(O)c2)cc2cn(C)nc12 (stereo not drawn) [Compound 160] and CCOC1CC(N2CC(c3ccc(-c4ccc(-c5cc(OC)c6nn(C)cc6c5)cc4O)nn3)C2)C1 (stereo not drawn) [Compound 163] fall in the same range of Emax at 5 µM: 25 to 75% for the first, 25 to 75% for the second.

First: Cc1cn2cc(-c3ccc(-c4ccc(C5CN(C6CCc7cn[nH]c7C6)C5)nn4)c(O)c3)cc(F)c2n1 (stereo not drawn) [Compound 128]
Second: Cc1cn2cc(-c3ccc(-c4ccc(C5CN(C6CCCOCC6)C5)nn4)c(O)c3)cc(F)c2n1 (stereo not drawn) [Compound 99]
The Emax at 5 µM of the first is lower: 25 to 75% for the first, greater than 750% for the second.

COc1cc(-c2ccc(-c3ccc(C4CN(Cc5cc6n(n5)CCC6)C4)nn3)c(O)c2)cc2cn(C)nc12 [Compound 184] and COc1cc(-c2ccc(-c3ccc(C4CN(Cc5cc(C6CC6)[nH]n5)C4)nn3)c(O)c2)cc2cn(C)nc12 [Compound 161] fall in the same range of Emax at 5 µM: 25 to 75% for the first, 25 to 75% for the second.

First: COc1cc(-c2ccc(-c3ccc(C4CN(CC(C)(C)C)C4)nn3)c(O)c2)cc2cn(C)nc12 [Compound 136]
Second: COc1cc(-c2ccc(-c3ccc(C4CN(C(C)COC(C)C)C4)nn3)c(O)c2)cc2cn(C)nc12 (stereo not drawn) [Compound 148]
The Emax at 5 µM of the first is higher: greater than 750% for the first, 25 to 75% for the second.

Cc1cn2cc(-c3ccc(-c4ccc(C5CN(CC6(C)COC6)C5)nn4)c(O)c3)cc(F)c2n1 [Compound 110] and Cc1cn2cc(-c3ccc(-c4ccc(C5CN(CC6(C(F)F)CC6)C5)nn4)c(O)c3)cc(F)c2n1 [Compound 112] fall in the same range of Emax at 5 µM: 25 to 75% for the first, 25 to 75% for the second.

Going from COc1cc(-c2ccc(-c3ccc(C4CN(C5CCN(C6CC6)CC5)C4)nn3)c(O)c2)cc2cn(C)nc12 [Compound 134] to COc1cc(-c2ccc(-c3ccc(C4CN(C5CCC(C#N)CC5)C4)nn3)c(O)c2)cc2cn(C)nc12 (stereo not drawn) [Compound 164], the Emax at 5 µM rises from less than 25% to greater than 750%.

Cc1cn2cc(-c3ccc(-c4ccc(C5CN(CC6CC6C)C5)nn4)c(O)c3)cc(F)c2n1 (stereo not drawn) [Compound 105] and Cc1cn2cc(-c3ccc(-c4ccc(C5CN(CC6CCSC6)C5)nn4)c(O)c3)cc(F)c2n1 (stereo not drawn) [Compound 111] cannot be ordered by Emax at 5 µM: greater than 750% for the first, greater than 750% for the second.

COc1cc(-c2ccc(-c3ccc(C4CN(C5CC6(CCOCC6)C5)C4)nn3)c(O)c2)cc2cn(C)nc12 [Compound 171] and COc1cc(-c2ccc(-c3ccc(C4CN(C5CCOC6(CCC6)C5)C4)nn3)c(O)c2)cc2cn(C)nc12 (stereo not drawn) [Compound 172] fall in the same range of Emax at 5 µM: 25 to 75% for the first, 25 to 75% for the second.

First: CCc1ncc(CN2CC(c3ccc(-c4ccc(-c5cc(OC)c6nn(C)cc6c5)cc4O)nn3)C2)cn1 [Compound 175]
Second: COc1cc(-c2ccc(-c3ccc(C4CN(CCC5CCOCC5)C4)nn3)c(O)c2)cc2cn(C)nc12 [Compound 168]
The Emax at 5 µM of the first is lower: 25 to 75% for the first, greater than 750% for the second.

Compared with COc1cc(-c2ccc(-c3ccc(C4CN(C5CCOC(C)(C)C5)C4)nn3)c(O)c2)cc2cn(C)nc12 (stereo not drawn) [Compound 146], COc1cc(-c2ccc(-c3ccc(C4CN(C5CCCSCC5)C4)nn3)c(O)c2)cc2cn(C)nc12 (stereo not drawn) [Compound 183] is higher in Emax at 5 µM: 25 to 75% for the first, greater than 750% for the second.

Cc1cn2cc(-c3ccc(-c4ccc(C5CN(C(C)C6CCCCO6)C5)nn4)c(O)c3)cc(F)c2n1 (stereo not drawn) [Compound 122] and Cc1cn2cc(-c3ccc(-c4ccc(C5CN(C6COC(C)C6)C5)nn4)c(O)c3)cc(F)c2n1 (stereo not drawn) [Compound 119] fall in the same range of Emax at 5 µM: 25 to 75% for the first, 25 to 75% for the second.

First: Cc1cn2cc(-c3ccc(-c4ccc(C5CN(Cc6ccn(C)n6)C5)nn4)c(O)c3)cc(F)c2n1 [Compound 80]
Second: Cc1cn2cc(-c3ccc(-c4ccc(C5CN(Cc6cc[nH]n6)C5)nn4)c(O)c3)cc(F)c2n1 [Compound 72]
The Emax at 5 µM of the first is lower: 25 to 75% for the first, greater than 750% for the second.

First: Cc1cn2cc(-c3ccc(-c4ccc(C5CN(CC6CCSCC6)C5)nn4)c(O)c3)cc(F)c2n1 [Compound 109]
Second: Cc1cn2cc(-c3ccc(-c4ccc(C5CN(Cc6cnco6)C5)nn4)c(O)c3)cc(F)c2n1 [Compound 90]
The Emax at 5 µM of the first is higher: greater than 750% for the first, 25 to 75% for the second.

COc1cc(-c2ccc(-c3ccc(C4CN(CC5CCC6CC6C5)C4)nn3)c(O)c2)cc2cn(C)nc12 (stereo not drawn) [Compound 186] and COCC1CCC(N2CC(c3ccc(-c4ccc(-c5cc(OC)c6nn(C)cc6c5)cc4O)nn3)C2)CC1 (stereo not drawn) [Compound 179] fall in the same range of Emax at 5 µM: 25 to 75% for the first, 25 to 75% for the second.

Same assay, conditions: Homo sapiens; HTT mini-gene firefly luciferase reporter transiently transfected into HEK293 cells

Cc1cn2cc(-c3ccc(-c4ccc(C5CN(C6CCOCC6)C5)nn4)c(O)c3)cc(F)c2n1 [Compound 18, 5-{8-fluoro-2-methylimidazo[1,2-a]pyridin-6-yl}-2-{6-[1-(oxan-4-yl)azetidin-3-yl]pyridazin-3-yl}phenol] and Cc1cn2nc(-c3ccc(-c4ccc(C5CN(C6CCOCC6)C5)nn4)c(O)c3)ccc2n1 [Compound 63, 5-(2-methylimidazo[1,2-b]pyridazin-6-yl)-2-(6-(1-(tetrahydro-2H-pyran-4-yl)azetidin-3-yl)pyridazin-3-yl)phenol hydrochloride] fall in the same range of EC50: 500 to 1000 nM for the first, 500 to 1000 nM for the second.

First: Cn1cc2cc(-c3ccc(-c4ccc(C5CNC5)nn4)c(O)c3)ncc2n1 [Compound 44, 2-(6-(azetidin-3-yl)pyridazin-3-yl)-5-(2-methyl-2H-pyrazolo[3,4-c]pyridin-5-yl)phenol hydrochloride]
Second: Cc1cn2cc(-c3ccc(-c4ccc(C5CNC5)nn4)c(O)c3)nc(C)c2n1 [Compound 9, 2-[6-(azetidin-3-yl)pyridazin-3-yl]-5-{2,8-dimethylimidazo[1,2-a]pyrazin-6-yl}phenol]
The EC50 of the first is higher: 500 to 1000 nM for the first, 50 to 500 nM for the second. The second is the more potent here.

CCN1CC(c2ccc(-c3ccc(-c4cn5cc(C)nc5c(C)n4)cc3O)nn2)C1 [Compound 32, 5-{2,8-dimethylimidazo[1,2-a]pyrazin-6-yl}-2-[6-(1-ethylazetidin-3-yl)pyridazin-3-yl]phenol] and Cc1cn2cc(-c3ccc(-c4ccc(C5CN(C)C5)nn4)c(O)c3)nc(C)c2n1 [Compound 20, 5-{2,8-dimethylimidazo[1,2-a]pyrazin-6-yl}-2-[6-(1-methylazetidin-3-yl)pyridazin-3-yl]phenol] cannot be ordered by EC50: no less than 1000 nM for the first, 500 to 1000 nM for the second.

CCOc1cc(-c2ccc(-c3ccc(C4CN(CC)C4)nn3)c(O)c2)cc2cn(C)nc12 [Compound 56, 5-(7-ethoxy-2-methyl-2H-indazol-5-yl)-2-[6-(1-ethylazetidin-3-yl)pyridazin-3-yl]phenol] and CCOc1cc(-c2ccc(-c3ccc(C4CN(C)C4)nn3)c(O)c2)cc2cn(C)nc12 [Compound 55, 5-(7-ethoxy-2-methyl-2H-indazol-5-yl)-2-[6-(1-methylazetidin-3-yl)pyridazin-3-yl]phenol] cannot be ordered by EC50: 500 to 1000 nM for the first, no less than 1000 nM for the second.

CCN1CC(c2ccc(-c3ccc(-c4cn5cc(C)nc5cn4)cc3O)nn2)C1 [Compound 43, 2-[6-(1-ethylazetidin-3-yl)pyridazin-3-yl]-5-{2-methylimidazo[1,2-a]pyrazin-6-yl}phenol] and CCN1CC(c2ccc(-c3ccc(-c4cc(C)c5nc(C)cn5n4)cc3O)nn2)C1 [Compound 42, 5-{2,8-dimethylimidazo[1,2-b]pyridazin-6-yl}-2-[6-(1-ethylazetidin-3-yl)pyridazin-3-yl]phenol] cannot be ordered by EC50: 500 to 1000 nM for the first, no less than 1000 nM for the second.

Cc1cn2nc(-c3ccc(-c4ccc(C5CN(C)C5)nn4)c(O)c3)cc(C)c2n1 [Compound 30, 5-{2,8-dimethylimidazo[1,2-b]pyridazin-6-yl}-2-[6-(1-methylazetidin-3-yl)pyridazin-3-yl]phenol] and Cc1cn2cc(-c3ccc(-c4ccc(C5CN(C)C5)nn4)c(O)c3)cc(C)c2n1 [Compound 35, 5-{2,8-dimethylimidazo[1,2-a]pyridin-6-yl}-2-[6-(1-methylazetidin-3-yl)pyridazin-3-yl]phenol] cannot be ordered by EC50: no less than 1000 nM for the first, 500 to 1000 nM for the second.

Compared with Cn1cc2cc(-c3ccc(-c4ccc(C5CN(C6CCOC6)C5)nn4)c(O)c3)ccc2n1 (stereo not drawn) [Compound 45, 5-(2-methyl-2H-indazol-5-yl)-2-{6-[1-(oxolan-3-yl)azetidin-3-yl]pyridazin-3-yl}phenol], CCN1CC(c2ccc(-c3ccc(-c4ccc5nn(C)cc5n4)cc3O)nn2)C1 [Compound 50, 2-[6-(1-ethylazetidin-3-yl)pyridazin-3-yl]-5-{2-methyl-2H-pyrazolo[4,3-b]pyridin-5-yl}phenol] is lower in EC50: 500 to 1000 nM for the first, 50 to 500 nM for the second. The second is the more potent here.

Source: patent US20250042879A1, “HETEROCYCLIC SUBSTITUTED 1,3,4-THIADIAZOLE AND PYRIDAZINE COMPOUNDS AND METHODS OF USING THE SAME” (Rgenta Therapeutics, Inc., priority 2021, published 2025)
